Measured values published in article PMC8956739, “A synthetic lipopeptide targeting top-priority multidrug-resistant Gram-negative pathogens” (Nature Communications, 2022).
Values joined by “and” are separate entries in the source; they are usually repeats but may differ in a detail not shown here. Equal values may be shown once. Read-outs that look alike come from different tables or passages of the source.

What was measured:
Swiss mice, kidney = test: Nephrotoxicity in mice (kidney histopathology); assay type: in vivo, mouse; conditions: for Kidney histopathology (SQS Score): 72 mg/kg/d subcutaneously in six divided doses every 2 h, n = 3
Outline: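 Female Swiss mice (7-week-old, 22–28 g) received lipopeptides in saline either s.c. at 12 mg/kg ×6 every 2 h (total 72 mg/kg, n = 3) or i.p. at 20 or 25 mg/kg ×6 every 2 h (total 120 mg/kg, n = 6; 150 mg/kg, n = 3). Right kidney collected 20 h after last dose, fixed in 10% buffered formalin (pH 7.4), histology scored blinded.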

A. baumannii AB5075 [1] = test: In vitro passaging, emergence of resistance; assay type: cell-based, Acinetobacter baumannii; conditions: for time to emergence of resistance: 4× MIC, 7-day passaging; for growth over 7 days: 32× MIC
Experimental: Log-phase cultures (OD600 = 0.5, ~10^8 CFU/mL) of A. baumannii AB5075 were inoculated (1:10, v/v) in 200 μL fresh CaMHB (cation-adjusted Mueller–Hinton broth) containing 2, 8 and 16 μg/mL polymyxin B, colistin, F287, and F365 in a 96-well microplate with 4 biological replicates. The cultures were incubated at 37 °C for 12 h before the next dilution (1:10, v/v) with fresh CaMHB. Successive subculturing was conducted for 7 days.

A. baumannii ATCC 19606 = assay type: cell-based, Acinetobacter baumannii
Outline: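 Read-out is the minimum inhibitory concentration, obtained by serially diluting compound in cation-adjusted Mueller–Hinton medium and exposing each isolate in microdilution format.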

A. baumannii FADDI-AB030 = assay type: cell-based, Acinetobacter baumannii; conditions: carbapenem-resistant isolate
Outline: (§1)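 Compounds were serially diluted in CaMHB, bacteria were added, and the lowest inhibitory concentration was recorded after broth microdilution testing.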

A. baumannii AB5075 [2] = assay type: cell-based, Acinetobacter baumannii
Outline: as §1

A. baumannii FADDI-AB034 = assay type: cell-based, Acinetobacter baumannii; conditions: carbapenem-resistant isolate
Outline: as §1

wild-type HK-2 cells = test: in vitro; assay type: cell-based, human; conditions: human, wild-type HK-2 cells (kidney proximal tubular), 24 h
Experimental: Fig. 6 Transcriptomic changes in human kidney proximal tubular HK-2 cells following treatments with polymyxin B (PMB), colistin (COL), F287, F319, and F365. a Numbers of differentially expressed genes. Distinctive intersections are color-coded. b Cell viability difference (two-tailed Student’s t-test, n = 4 biologically independent cells, Benjamini–Hochberg adjusted P-values) between wild-type HK-2 and KCNJ16 knockout (KO) cells following 24 h treatment with lipopeptides. n.s., not significant; ^*adjusted P < 0.05, ^**adjusted P < 0.01, ^***adjusted P < 0.001. Data are shown as mean ± s.d. and individual data points. c Extracted transcriptional regulatory network from Signor database with 1-step neighbor constraints (enlarged for detail). Source data are provided as a Source Data file.

[3] = test system: MDR clinical isolates of A. baumannii (n = 210, 200 carbapenem-resistant); assay type: cell-based, Acinetobacter baumannii
Outline: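 Broth microdilution, CaMHB; MIC read as the antibacterial endpoint against ATCC reference strains and clinical isolates.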

[4] = 8 ug/mL, time 0 h, passage 0, replicates rep1-rep4, raw OD600 (blank OD600 0.125333)
[5] = 8 ug/mL, time 12 h, passage 1, replicates rep1-rep4, raw OD600 (blank OD600 0.114667)
[6] = 8 ug/mL, time 24 h, passage 2, replicates rep1-rep4, raw OD600 (blank OD600 0.0956667)
[7] = 8 ug/mL, time 36 h, passage 3, replicates rep1-rep4, raw OD600 (blank OD600 0.088)
[8] = 8 ug/mL, time 48 h, passage 4, replicates rep1-rep4, raw OD600 (blank OD600 0.104667)
[9] = 8 ug/mL, time 60 h, passage 5, replicates rep1-rep4, raw OD600 (blank OD600 0.122333)
[10] = 8 ug/mL, time 72 h, passage 6, replicates rep1-rep4, raw OD600 (blank OD600 0.095)
[11] = 8 ug/mL, time 84 h, passage 7, replicates rep1-rep4, raw OD600 (blank OD600 0.091)
[12] = 8 ug/mL, time 96 h, passage 8, replicates rep1-rep4, raw OD600 (blank OD600 0.0953333)
[13] = 8 ug/mL, time 108 h, passage 9, replicates rep1-rep4, raw OD600 (blank OD600 0.100667)
[14] = 8 ug/mL, time 120 h, passage 10, replicates rep1-rep4, raw OD600 (blank OD600 0.0983333)
[15] = 8 ug/mL, time 132 h, passage 11, replicates rep1-rep4, raw OD600 (blank OD600 0.0843333)
[16] = 8 ug/mL, time 144 h, passage 12, replicates rep1-rep4, raw OD600 (blank OD600 0.091)
[17] = 8 ug/mL, time 156 h, passage 13, replicates rep1-rep4, raw OD600 (blank OD600 0.129)
[18] = mouse, in vivo, ip, 60 mg/kg/day

Substance: Colistin [reference compound]
- Kidney histopathology (SQS Score) (Swiss mice, kidney): +5 (SQS + 5 = severe damage (overall score, >60))
- Kidney histopathology, mice with the SQS score (Swiss mice, kidney; mouse, in vivo): 3/3
- regrowth observed from day (A. baumannii AB5075 [1]): 4 days
- OD600 (A. baumannii AB5075 [1]; [4]): 0.152 and 0.143 and 0.147 and 0.146
- OD600 (A. baumannii AB5075 [1]; [5]): 0.136 and 0.134 and 0.13
- OD600 (A. baumannii AB5075 [1]; [6]): 0.095 and 0.089 and 0.087 and 0.091
- OD600 (A. baumannii AB5075 [1]; [7]): 0.088 and 0.087 and 0.085 and 0.091
- OD600 (A. baumannii AB5075 [1]; [8]): 0.095 and 0.093
- OD600 (A. baumannii AB5075 [1]; [9]): 0.125 and 0.117 and 0.115 and 0.107
- OD600 (A. baumannii AB5075 [1]; [10]): 0.14 and 0.126 and 0.15
- OD600 (A. baumannii AB5075 [1]; [11]): 0.196 and 0.173 and 0.191 and 0.238
- OD600 (A. baumannii AB5075 [1]; [12]): 0.224 and 0.238 and 0.275 and 0.393
- OD600 (A. baumannii AB5075 [1]; [13]): 0.309 and 0.315 and 0.31 and 0.392
- OD600 (A. baumannii AB5075 [1]; [14]): 0.387 and 0.364 and 0.444 and 0.49
- OD600 (A. baumannii AB5075 [1]; [15]): 0.344 and 0.355 and 0.395 and 0.414
- OD600 (A. baumannii AB5075 [1]; [16]): 0.477 and 0.464 and 0.465 and 0.416
- OD600 (A. baumannii AB5075 [1]; [17]): 0.339 and 0.382 and 0.394
- OD600 (A. baumannii AB5075 [1]; 8 ug/mL, time 168 h, passage 14, replicates rep1-rep4, raw OD600 (blank OD600 0.101)): 0.344 and 0.379 and 0.374 and 0.394
- time to emergence of resistance (A. baumannii AB5075 [1]): ≤ 3 days
- growth over 7 days (A. baumannii AB5075 [1]): No growth
- MIC A. baumannii ATCC 19606 (A. baumannii ATCC 19606): 1 µg/mL
- MIC A. baumannii FADDI-AB030 (A. baumannii FADDI-AB030): 0.5 µg/mL
- MIC A. baumannii AB5075 (A. baumannii AB5075 [2]): 0.5 µg/mL
- MIC A. baumannii FADDI-AB034 (A. baumannii FADDI-AB034): 0.5 µg/mL
- Cell viability, WT, Rep1 (wild-type HK-2 cells): 52.6875
- Cell viability, WT, Rep2 (wild-type HK-2 cells): 59.5382
- Cell viability, WT, Rep4 (wild-type HK-2 cells): 47.0908

Substance: Polymyxin B [reference compound]
- Kidney histopathology (SQS Score) (Swiss mice, kidney): +5 (SQS + 5 = severe damage (overall score, >60))
- Kidney histopathology, mice with the SQS score (Swiss mice, kidney; mouse, in vivo): 3/3
- Kidney histological damage (Swiss mice, kidney; [18]): Moderate to severe
- Kidney histological damage, mice with the given grade (Swiss mice, kidney; [18]): 6/6
- regrowth observed from day (A. baumannii AB5075 [1]): 3 days
- OD600 (A. baumannii AB5075 [1]; [4]): 0.153 and 0.134 and 0.139 and 0.14
- OD600 (A. baumannii AB5075 [1]; [5]): 0.127 and 0.115 and 0.123 and 0.124
- OD600 (A. baumannii AB5075 [1]; [6]): 0.086 and 0.093 and 0.096 and 0.083
- OD600 (A. baumannii AB5075 [1]; [7]): 0.088 and 0.089 and 0.094 and 0.092
- OD600 (A. baumannii AB5075 [1]; [8]): 0.096 and 0.099 and 0.098 and 0.101
- OD600 (A. baumannii AB5075 [1]; [9]): 0.108 and 0.105 and 0.103 and 0.116
- OD600 (A. baumannii AB5075 [1]; [10]): 0.092 and 0.093 and 0.083 and 0.091
- OD600 (A. baumannii AB5075 [1]; [11]): 0.1 and 0.081 and 0.084 and 0.089
- OD600 (A. baumannii AB5075 [1]; [12]): 0.192 and 0.105 and 0.119 and 0.106
- OD600 (A. baumannii AB5075 [1]; [13]): 0.179 and 0.108 and 0.11 and 0.118
- OD600 (A. baumannii AB5075 [1]; [14]): 0.215 and 0.139 and 0.136 and 0.132
- OD600 (A. baumannii AB5075 [1]; [15]): 0.198 and 0.19 and 0.197 and 0.21
- OD600 (A. baumannii AB5075 [1]; [16]): 0.2 and 0.22 and 0.217 and 0.231
- OD600 (A. baumannii AB5075 [1]; [17]): 0.176 and 0.181 and 0.195 and 0.201
- time to emergence of resistance (A. baumannii AB5075 [1]): ≤ 3 days
- growth over 7 days (A. baumannii AB5075 [1]): No growth
- OD600 (A. baumannii AB5075 [1]; in vitro passaging, concentration 8 ug/mL, time 168 h, passage 14, individual replicates rep1-rep4, not blank-subtracted (blank OD600 0.101)): 0.177 and 0.182 and 0.195 and 0.205
- MIC A. baumannii ATCC 19606 (A. baumannii ATCC 19606): 1 µg/mL
- MIC A. baumannii FADDI-AB030 (A. baumannii FADDI-AB030): 0.25 µg/mL
- MIC50 ([3]; A. baumannii n = 210): 1 µg/mL
- MIC90 ([3]; A. baumannii n = 210): 4 µg/mL
- Number of isolates ([3]; isolates with MIC 0.05 µg/mL): 0
- Number of isolates ([3]; isolates with MIC 0.125 µg/mL): 0
- Number of isolates ([3]; isolates with MIC 0.25 µg/mL): 0
- Number of isolates ([3]; isolates with MIC 0.5 µg/mL): 24
- Number of isolates ([3]; isolates with MIC 1 µg/mL): 120
- Number of isolates ([3]; isolates with MIC 2 µg/mL): 47
- Number of isolates ([3]; isolates with MIC 4 µg/mL): 11
- Number of isolates ([3]; isolates with MIC 8 µg/mL): 5
- Number of isolates ([3]; isolates with MIC 16 µg/mL): 2
- Number of isolates ([3]; isolates with MIC 32 µg/mL): 0
- Number of isolates ([3]; isolates with MIC 64 µg/mL): 0
- Number of isolates ([3]; isolates with MIC >64 µg/mL): 0
- MIC A. baumannii AB5075 (A. baumannii AB5075 [2]): 0.5 µg/mL
- MIC A. baumannii FADDI-AB034 (A. baumannii FADDI-AB034): 0.5 µg/mL
- Cell viability, WT, Rep1 (wild-type HK-2 cells): 28.7713
- Cell viability, WT, Rep2 (wild-type HK-2 cells): 35.2856
- Cell viability, WT, Rep4 (wild-type HK-2 cells): 31.0651
